Like-named read-outs stand apart in the source and are kept apart here.
How the values were obtained:
[1] = test system: Aβ40 in conditioned medium of cells stably expressing Amyloid Precursor Protein (APP); experiment: In vitro BACE cell-based assay (HEK cell assay), Aβ40 sandwich ELISA
Procedure, shortened: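 APP-stably expressing cells (40K/well, grown 24 h in DMEM/10% FBS) were treated 24 h with compounds in 10-point dose response starting at 100 μM or 10 μM, 0.1% DMSO final. Secreted Aβ40 was measured by sandwich ELISA (pAb40 capture, biotinylated 6E10 detection, europium time-resolved fluorescence); IC50 from percent inhibition.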

Cathepsin D (Cat D) = molecular target: T1, Cathepsin D (Cat D) (Homo sapiens, UniProt P07339); experiment: In vitro enzymatic Cathepsin D (Cat D) FRET assay; type: biochemical; conditions: read-out: CatD IC50
T1 construct: Recombinant Cat D was expressed in CHO cells; made in house; host or cells: CHO cells
Procedure, shortened: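 Recombinant Cat D expressed in CHO cells, used at 9 nM and pre-incubated one hour with serially diluted inhibitor in DMSO. Peptide substrate carries a fluorophore and quencher flanking the cleavage site; reaction stopped with Tris buffer raising pH to neutrality, then fluorescence read.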

[2] = test system: Abeta 40 in cerebrospinal fluid (CSF) and brain; experiment: In vivo inhibition of beta-secretase: Abeta 40 reduction in CSF and brain of the rat; conditions: 10 mpk (unless otherwise noted), after 4 hrs
Text: In Vivo Inhibition of Beta-Secretase
Several animal models, including mouse, rat, dog, and monkey, may be used to screen for inhibition of beta-secretase activity in vivo following administration of a test compound sample. Animals used in this invention can be wild type, transgenic, or gene knockout animals. […] One to twenty-four hours following the administration of compound, animals are sacrificed, and brains as well as cerebrospinal fluid (CSF) and plasma are removed for analysis of A-beta levels and drug or test compound concentrations (Dovey et al., 2001, Journal of Neurochemistry, 76, 173-181) Beginning at time 0, animals are administered by oral gavage, or other means of delivery such as intravenous injection, an inhibitory test compound of up to 100 mg/kg in a standard, conventional formulation, such as 2% hydroxypropyl methylcellulose, 1% Tween80. A separate group of animals receive 2% hydroxypropyl methylcellulose, 1% Tween80 alone, containing no test compound, and serve as a vehicle-control group. […] CSF or brain supernatants are then analyzed for the presence of A-beta peptide by specific sandwich ELISA assays based on ECL (Electrochemiluminescence) technology. For example, rat Abeta40 is measured using biotinylated-4G8 (Signet) as a capture antibody and Fab40 (an in-house antibody specific to the C-terminal of Abeta40) as a detection antibody.

[3] = molecular target: Beta Secretase enzyme (BACE1) (Homo sapiens, UniProt P56817); experiment: In vitro enzymatic BACE FRET assay; type: biochemical; conditions: read-out: BACE1 FRET assay IC50
Procedure, shortened: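 BACE1 cleavage of a 50 nM fluorophore/quencher peptide FRET substrate ran for one hour in 0.05 M acetate pH 4.2, 10% DMSO, 100 uM genapol. Tris buffer raised pH to neutrality to stop the reaction before fluorescence was read (excitation 488 nm, […]).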

Aβ in lumbar CSF = conditions: Ph I clinical trial; cited from earlier work
[4] = test system: pigment epithelium of the rat's eye; conditions: higher compound dose given for three months; cited from earlier work
[5] = people brought in after termination of the Ph I dosing trial; cited from earlier work
[6] = Homo sapiens, HEK293, average IC50, HEK cells

Sequence of Beta Secretase enzyme (BACE1) (P56817 46-501): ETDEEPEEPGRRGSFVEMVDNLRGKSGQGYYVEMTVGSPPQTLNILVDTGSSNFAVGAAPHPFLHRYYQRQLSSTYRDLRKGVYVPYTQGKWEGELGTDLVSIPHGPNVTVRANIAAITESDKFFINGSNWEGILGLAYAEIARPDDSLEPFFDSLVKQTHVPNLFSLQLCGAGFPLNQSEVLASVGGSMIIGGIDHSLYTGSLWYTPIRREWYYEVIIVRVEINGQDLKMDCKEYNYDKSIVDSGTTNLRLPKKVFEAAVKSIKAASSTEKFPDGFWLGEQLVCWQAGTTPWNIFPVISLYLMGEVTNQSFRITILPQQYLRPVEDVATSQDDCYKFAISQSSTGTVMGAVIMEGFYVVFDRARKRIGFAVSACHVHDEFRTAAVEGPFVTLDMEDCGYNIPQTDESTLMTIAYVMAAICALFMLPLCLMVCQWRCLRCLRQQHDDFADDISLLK
T1 sequence (P07339 65-412, species assumed): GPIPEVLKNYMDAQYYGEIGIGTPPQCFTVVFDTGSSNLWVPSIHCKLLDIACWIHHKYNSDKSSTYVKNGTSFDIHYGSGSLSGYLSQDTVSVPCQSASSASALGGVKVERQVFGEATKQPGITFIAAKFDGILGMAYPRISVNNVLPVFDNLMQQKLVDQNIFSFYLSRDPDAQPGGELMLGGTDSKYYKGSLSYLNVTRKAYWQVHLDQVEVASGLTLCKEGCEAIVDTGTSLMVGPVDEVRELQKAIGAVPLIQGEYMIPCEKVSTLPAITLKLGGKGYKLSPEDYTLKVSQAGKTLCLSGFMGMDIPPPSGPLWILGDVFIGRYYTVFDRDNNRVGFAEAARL

Molecule | IC50 (Cathepsin D (Cat D)) | IC50 ([1]; average IC50, cell assay) | IC50 ([3]; average IC50, enzyme assay) | other results
CC1(C)C(N)=N[C@](CF)(c2cc(N)ccc2F)CS1(=O)=O [Example 456, (5S)-5-(5-amino-2-fluorophenyl)-5-(fluoromethyl)-2,2-dimethyl-5,6-dihydro-2H-1,4-thiazin-3-amine 1,1-dioxide] | 228000 nM | – | – | IC50 [1, 6]: > 15600 nM; IC50 ([3]; average IC50): 2530 nM
CC1[C@@](C)(c2cc(Br)ccc2F)N=C(N)[C@](C)(F)S1(=O)=O (stereo partly drawn) [Example 459, (2R,5R)-5-(5-bromo-2-fluorophenyl)-2-fluoro-2,5,6-trimethyl-5,6-dihydro-2H-1,4-thiazin-3-amine 1,1-dioxide] | > 400000 nM | – | – | IC50 [1, 6]: 5470 nM; IC50 ([3]; average IC50): 2300 nM
C[C@@]1(c2cc(-c3cncnc3)c(F)cc2F)CCSC(N)=N1 [LY2811376, (S)-4-(2,4-difluoro-5-pyrimidin-5-yl-phenyl)-4-methyl-5,6-dihydro-4H-[1,3]thiazin-2-ylamine] | – | – | – | safety and tolerability in healthy volunteers (Aβ in lumbar CSF): safe and well tolerated
C[C@@]1(c2cc(-c3cncnc3)c(F)cc2F)CCSC(N)=N1 [LY 2811376] | – | – | – | rat toxicology finding [4]: damaged the pigment epithelium of the rat's eye; eye assessments of Ph I subjects [5]: did not show any abnormalities
N-(3-((4aR,7aS)-3-amino-2,2-dimethyl-1,1-dioxido-7,7a-dihydro-2H-furo[3,4-b][1,4]thiazin-4a(5H)-yl)-4-fluorophenyl)-3-chloro-1,7-naphthyridin-8-amine, N-(3-((4aS,7aR)-3-amino-2,2-dimethyl-1,1-dioxido-7,7a-dihydro-2H-furo[3,4-b][1,4]thiazin-4a(5H)-yl)-4-fluorophenyl)-3-chloro-1,7-naphthyridin-8-amine [Example 429] | 131000 nM | 157 nM | 4.6 nM | –
N-(3-((4aR,7aS)-3-amino-2,2-dimethyl-1,1-dioxido-7,7a-dihydro-2H-furo[3,4-b][1,4]thiazin-4a(5H)-yl)-4-fluorophenyl)-5-chloro-2-pyridinecarboxamide, N-(3-((4aS,7aR)-3-amino-2,2-dimethyl-1,1-dioxido-7,7a-dihydro-2H-furo[3,4-b][1,4]thiazin-4a(5H)-yl)-4-fluorophenyl)-5-chloro-2-pyridinecarboxamide [Example 426] | 170000 nM | 13.6 nM | 1.5 nM | –
N-(3-((4aR,7aS)-3-amino-2,2-dimethyl-1,1-dioxido-7,7a-dihydro-2H-furo[3,4-b][1,4]thiazin-4a(5H)-yl)-4-fluorophenyl)-5-methoxy-3-methyl-2-pyridinecarboxamide, N-(3-((4aS,7aR)-3-amino-2,2-dimethyl-1,1-dioxido-7,7a-dihydro-2H-furo[3,4-b][1,4]thiazin-4a(5H)-yl)-4-fluorophenyl)-5-methoxy-3-methyl-2-pyridinecarboxamide [Example 428] | 309000 nM | 37.3 nM | 9.71 nM | –
N-(3-((7R)-9-amino-7-(fluoromethyl)-5,5-dioxido-5-thia-8-azaspiro[3.5]non-8-en-7-yl)-4-fluorophenyl)-3-chloro-1,7-naphthyridin-8-amine, N-(3-((7S)-9-amino-7-(fluoromethyl)-5,5-dioxido-5-thia-8-azaspiro[3.5]non-8-en-7-yl)-4-fluorophenyl)-3-chloro-1,7-naphthyridin-8-amine [Example 243] | 363000 nM | 77.9 nM | 1.31 nM | –
N-(3-((7R)-9-amino-7-(fluoromethyl)-5,5-dioxido-5-thia-8-azaspiro[3.5]non-8-en-7-yl)-4-fluorophenyl)-5-(difluoromethoxy)-3-methyl-2-pyridinecarboxamide, N-(3-((7S)-9-amino-7-(fluoromethyl)-5,5-dioxido-5-thia-8-azaspiro[3.5]non-8-en-7-yl)-4-fluorophenyl)-5-(difluoromethoxy)-3-methyl-2-pyridinecarboxamide [Example 410] | 170000 nM | – | – | IC50 [1]: 11.9 nM; IC50 [3]: 2.3 nM

More lines, main results first:

IC50 (Cathepsin D (Cat D)) | IC50 ([1]; average IC50, cell assay) | IC50 ([3]; average IC50, enzyme assay) | Molecule | other results
144000 nM | – | – | COc1cnc(C(=O)Nc2ccc(F)c([C@]34COC[C@H]3S(=O)(=O)C(C)(C)C(N)=N4)c2)c(C)c1 [Example 430, N-(3-((4aS,7aS)-3-amino-2,2-dimethyl-1,1-dioxido-7,7a-dihydro-2H-furo[3,4-b][1,4]thiazin-4a(5H)-yl)-4-fluorophenyl)-5-methoxy-3-methyl-2-pyridinecarboxamide] | IC50 ([1]; Homo sapiens, HEK293, average IC50, cell assay): 11.7 nM; % reduction of rat CSF levels at 10pmk ([2]; rat CSF): 31%; % reduction of rat brain levels at 10mpk ([2]; rat brain): 1%
812000 nM | – | – | COc1ccc(C(=O)Nc2ccc(F)c([C@]3(CF)CS(=O)(=O)C(C)(C)C(N)=N3)c2)nc1 [Example 457, N-(3-((3S)-5-amino-3-(fluoromethyl)-6,6-dimethyl-1,1-dioxido-3,6-dihydro-2H-1,4-thiazin-3-yl)-4-fluorophenyl)-5-methoxy-2-pyridinecarboxamide] | IC50 [1, 6]: 12.9 nM; IC50 ([3]; average IC50): 0.65 nM
499000 nM | – | – | COCc1cc(Cl)cnc1C(=O)Nc1ccc(F)c([C@]2(CF)CS(=O)(=O)C(C)(C)C(N)=N2)c1 [Example 458, N-(3-((3S)-5-amino-3-(fluoromethyl)-6,6-dimethyl-1,1-dioxido-3,6-dihydro-2H-1,4-thiazin-3-yl)-4-fluorophenyl)-5-chloro-3-(methoxymethyl)-2-pyridinecarboxamide] | IC50 [1, 6]: 23.9 nM; IC50 ([3]; average IC50): 0.9 nM
111000 nM | – | – | N-(3-((4aR,7aR)-3-amino-2,2-dimethyl-1,1-dioxido-7,7a-dihydro-2H-furo[3,4-b][1,4]thiazin-4a(5H)-yl)-4-fluorophenyl)-5-(difluoromethoxy)-3-methyl-2-pyridinecarboxamide, N-(3-((4aS,7aS)-3-amino-2,2-dimethyl-1,1-dioxido-7,7a-dihydro-2H-furo[3,4-b][1,4]thiazin-4a(5H)-yl)-4-fluorophenyl)-5-(difluoromethoxy)-3-methyl-2-pyridinecarboxamide [Example 413] | IC50 [1]: 10.3 nM; IC50 [3]: 2.65 nM
220000 nM | 33 nM | 1 nM | N-(3-((4aR,7aS)-3-amino-2,2-dimethyl-1,1-dioxido-7,7a-dihydro-2H-furo[3,4-b][1,4]thiazin-4a(5H)-yl)-4-fluorophenyl)-5-chloro-3-methyl-2-pyridinecarboxamide, N-(3-((4aS,7aR)-3-amino-2,2-dimethyl-1,1-dioxido-7,7a-dihydro-2H-furo[3,4-b][1,4]thiazin-4a(5H)-yl)-4-fluorophenyl)-5-chloro-3-methyl-2-pyridinecarboxamide [Example 427] | –

Reference: patent US20140107109A1, “AMINO-DIHYDROTHIAZINE AND AMINO-DIOXIDO DIHYDROTHIAZINE COMPOUNDS AS BETA-SECRETASE ANTAGONISTS AND METHODS OF USE” (Amgen Inc., priority 2012, published 2014)
